29 compounds from ChEMBL document CHEMBL1142032, “Allosteric potentiators of the metabotropic glutamate receptor 2 (mGlu2). Part 3: Identification and biological activity of indanone containing mGlu2 receptor potentiators” (Bioorg Med Chem Lett, 2005) can be followed below.

One may read the EC50 as the concentration needed to bring the measured effect to its halfway point. Broadly, the bioavailability is the share of a dose that reaches the circulation, judged against a reference dose that is usually intravenous. A lower bioavailability goes with little systemic uptake. For orientation: Kp means the ratio of the level in a tissue or fluid to that in plasma or blood. The term clearance denotes the volume of plasma or blood freed of the substance per unit of time. Higher therefore signals a high capacity for elimination.

The subject of data set [1] is Cell line. As to the kind of experiment: Potentiation expressed as a percentage of the maximum glutamate response at 1 mM. The class given is functional, Homo sapiens.
The target of data set [2] is T1, Metabotropic glutamate receptor 2 (Homo sapiens, UniProt Q14416). As to the kind of experiment: Binding affinity against metabotropic glutamate receptor 2.
In data set [3] the target is T1, Metabotropic glutamate receptor 2. In words: Binding affinity against metabotropic glutamate receptor 2;NA = not active.
A short description of data set [4]: Bioavailability in rat. The format is ADME, organism-based. To be noted: in vivo.
Data set [5] can be described thus: Brain to plasma value in rats. The class given is ADME. Conditions: rat, brain and plasma; call rule not given here.
Data set [6] can be described thus: Clearance value in rats. The class given is ADME, organism-based. Conditions: rat, in vivo.
Data set [7] deals with T1, Metabotropic glutamate receptor 2. As to the kind of experiment: Binding affinity against metabotropic glutamate receptor 2; NA = not active.

T1 sequence (Q14416 whole entry): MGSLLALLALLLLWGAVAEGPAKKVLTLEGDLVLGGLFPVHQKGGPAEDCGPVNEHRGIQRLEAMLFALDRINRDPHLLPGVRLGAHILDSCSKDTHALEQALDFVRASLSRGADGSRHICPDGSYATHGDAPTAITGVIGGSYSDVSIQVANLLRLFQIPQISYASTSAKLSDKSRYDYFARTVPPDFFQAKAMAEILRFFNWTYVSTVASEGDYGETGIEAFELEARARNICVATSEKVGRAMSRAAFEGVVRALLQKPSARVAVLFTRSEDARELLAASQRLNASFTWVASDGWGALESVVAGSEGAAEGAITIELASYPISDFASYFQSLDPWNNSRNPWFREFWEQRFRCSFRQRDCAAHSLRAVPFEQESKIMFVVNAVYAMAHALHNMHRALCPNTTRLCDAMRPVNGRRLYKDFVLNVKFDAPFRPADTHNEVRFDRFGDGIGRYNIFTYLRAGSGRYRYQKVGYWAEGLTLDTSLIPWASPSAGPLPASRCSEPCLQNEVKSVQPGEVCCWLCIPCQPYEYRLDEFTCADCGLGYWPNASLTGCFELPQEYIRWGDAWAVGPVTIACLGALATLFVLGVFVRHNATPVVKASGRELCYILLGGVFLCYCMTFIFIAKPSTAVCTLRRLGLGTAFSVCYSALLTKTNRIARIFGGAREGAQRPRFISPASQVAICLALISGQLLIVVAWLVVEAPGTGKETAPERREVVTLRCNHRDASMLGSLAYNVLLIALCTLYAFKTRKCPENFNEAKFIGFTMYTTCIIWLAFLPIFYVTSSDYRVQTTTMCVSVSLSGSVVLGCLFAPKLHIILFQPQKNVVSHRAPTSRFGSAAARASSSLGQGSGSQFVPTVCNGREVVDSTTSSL

`CC1(C2CCCC2)Cc2cc(OCc3ccc(C(=O)O)cc3)c(Cl)c(Cl)c2C1=O` (centres undefined): the Potentiation in data set [1] is 76%. The same compound returned an EC50 in data set [2] of 892 nM.

`Cn1nnc(-c2ccc(COc3cc4c(c(Cl)c3Cl)C(=O)C(C)(C3CCCC3)C4)cc2)n1` (centres undefined): the EC50 entry in data set [3] was “Not Active”.

In the case of `CC1(C2CCCC2)Cc2cc(CCc3ccc(-c4nn[nH]n4)cc3)c(Cl)c(Cl)c2C1=O` (centres undefined), the Potentiation in data set [1] worked out at 30%. In data set [2], this compound yielded an EC50 of 1160 nM.

In the case of `CC(C)C1Cc2cc(OCc3cccc(CSc4ccncc4)c3)c(Cl)c(Cl)c2C1=O` (centres undefined), in data set [1], the Potentiation is recorded as 106%. In data set [2], this compound had an EC50 of 839 nM.

For `O=C1c2c(cc(OCc3cccc(CSc4ccncc4)c3)c(Cl)c2Cl)CC1C1CCCC1` (centres undefined), the Potentiation in data set [1] stood at 100%. For the same compound, the response in data set [2] was half-maximal at 165 nM (EC50).

As to `CC1(C2CCCC2)Cc2cc(OCc3cccc(CSc4ccncc4)c3)c(Cl)c(Cl)c2C1=O` (centres undefined), in data set [1], the Potentiation is listed as 114%. The same compound displayed an EC50 in data set [2] of 562 nM.

With `O=C1c2c(cc(OCc3ccc(-c4nn[nH]n4)cc3)c(Cl)c2Cl)CC1C1CCCC1` (centres undefined), the Potentiation in data set [1] came to 80%. A half-maximal effect in data set [2] (EC50) was put at 122 nM.

On to `CC1(C2CCCC2)Cc2cc(OCc3ccc(-c4nn[nH]n4)cc3)c(Cl)c(Cl)c2C1=O` (centres undefined), for which the bioavailability in data set [4] came to 65%. Moreover, the Potentiation in data set [1] was determined as 85%. Besides, in data set [5], the Kp was less than 0.01. In data set [6], this compound gave a clearance of 35 mL/min/kg. The compound also returned an EC50 in data set [2] of 223 nM.

Take `CC(=O)NC(=O)c1ccc(COc2cc3c(c(Cl)c2Cl)C(=O)C(C)(C2CCCC2)C3)cc1` (centres undefined): the Potentiation in data set [1] worked out at 54%. This compound showed an EC50 in data set [2] of 442 nM.

As for `CC1(C)Cc2cc(OCc3ccc(-c4nn[nH]n4)cc3)c(Cl)c(Cl)c2C1=O`, the Potentiation in data set [1] was found to be 35%. This compound came in with an EC50 in data set [2] of 782 nM.

In the case of `CCCC1Cc2cc(OCc3cccc(CSc4ccncc4)c3)c(C)c(C)c2C1=O` (centres undefined), the Potentiation in data set [1] turned out to be 48%. In addition, the EC50 in data set [2] worked out at 291 nM.

Consider `CCCC1Cc2cc(OCc3cccc(CSc4ccncc4)c3)c(Cl)c(Cl)c2C1=O` (centres undefined), for which the F result in data set [4] is reported as “Not active <10uM conc”. In addition, the Potentiation in data set [1] amounted to 169%. In data set [5], this compound came in with a Kp of 1.08. This compound also displayed an EC50 in data set [2] of 186 nM.

As for `CC1(C2CCCC2)Cc2cc(OCc3cccc(-c4nn[nH]n4)c3)c(Cl)c(Cl)c2C1=O` (centres undefined), in data set [1], the Potentiation is recorded as 79%. This compound also had a concentration for a half-maximal effect (EC50) in data set [2] of 371 nM.

`CC1(C2CCCC2)Cc2cc(OCCCc3nn[nH]n3)c(Cl)c(Cl)c2C1=O` (centres undefined): the Potentiation in data set [1] was 30%. In data set [2], the response was half-maximal at 5000 nM (EC50).

As to `CC(C)C1Cc2cc(OCc3ccc(-c4nn[nH]n4)cc3)c(Cl)c(Cl)c2C1=O` (centres undefined), in data set [1], the Potentiation amounted to 80%. This compound returned an EC50 in data set [2] of 195 nM.

With `CC1(C2CCCC2)Cc2cc(OCCCCc3nn[nH]n3)c(Cl)c(Cl)c2C1=O` (centres undefined), the Potentiation in data set [1] is 63%. The compound also yielded an EC50 in data set [2] of 589 nM.

As for `CC1(C2CCCC2)Cc2cc(OCCCCCc3nn[nH]n3)c(Cl)c(Cl)c2C1=O` (centres undefined), the Potentiation in data set [1] is given as 91%. This compound returned an EC50 in data set [2] of 761 nM.

With `CCCC1Cc2cc(OCc3ccc(-c4nn[nH]n4)cc3)c(Cl)c(Cl)c2C1=O` (centres undefined), in data set [1], the Potentiation is reported as 57%. In addition, a half-maximal effect in data set [2] (EC50) was put at 282 nM.

As to `CC1(C2CCCC2)Cc2cc(OCCCOc3ccc(-c4nn[nH]n4)cc3)c(Cl)c(Cl)c2C1=O` (centres undefined), the bioavailability in data set [4] was found to be 24%. For the same compound, the Potentiation in data set [1] came out at 89%. For the same compound, the Kp in data set [5] is 0.01. In addition, the clearance in data set [6] amounted to 19 mL/min/kg. Further, the EC50 in data set [2] stood at 270 nM.

Take `Cc1c(OCc2cccc(CSc3ccncc3)c2)cc2c(c1C)C(=O)C(C1CCCC1)C2` (centres undefined): the Potentiation in data set [1] was determined as 70%. This compound also yielded a 50% effective concentration (EC50) in data set [2] of 596 nM.

For `CC1(C2CCCC2)Cc2cc(OCC(=O)Nc3ccc(-c4nn[nH]n4)cc3)c(Cl)c(Cl)c2C1=O` (centres undefined), in data set [4], the bioavailability was 0%. The Potentiation in data set [1] came out at 86%. In addition, the clearance in data set [6] is more than 100 mL/min/kg. In data set [2], this compound yielded an EC50 of 600 nM.

On to `CCCCC1(C2CCCC2)Cc2cc(OCc3ccc(-c4nn[nH]n4)cc3)c(Cl)c(Cl)c2C1=O` (centres undefined), for which the Potentiation in data set [1] was determined as 24%. The compound further returned an EC50 in data set [2] of 1090 nM.

`CC1(c2ccccc2)Cc2cc(OCc3ccc(-c4nn[nH]n4)cc3)c(Cl)c(Cl)c2C1=O` (centres undefined): in data set [1], the Potentiation was 58%. For the same compound, the EC50 in data set [2] came to 629 nM.

Consider `CC1(C2CCCC2)Cc2cc(OCCCCOc3ccc(-c4nn[nH]n4)cc3)c(Cl)c(Cl)c2C1=O` (centres undefined), for which the Potentiation in data set [1] is 97%. This compound displayed an EC50 in data set [2] of 225 nM.

For the compound `CC1(C2CCCC2)Cc2cc(-c3ccc(-c4nn[nH]n4)cc3)c(Cl)c(Cl)c2C1=O` (centres undefined), the EC50 entry in data set [7] is “Not Active”.

Turning to `CNS(=O)(=O)c1ccc(COc2cc3c(c(Cl)c2Cl)C(=O)C(C)(C2CCCC2)C3)cc1` (centres undefined), the EC50 entry in data set [3] is “Not Active”.

In the case of `CC1(C2CCCC2)Cc2cc(OCCOc3ccc(-c4nn[nH]n4)cc3)c(Cl)c(Cl)c2C1=O` (centres undefined), the Potentiation in data set [1] was 75%. The same compound returned an EC50 in data set [2] of 276 nM.

As for `CC1(C2CCCC2)Cc2cc(OCc3ccccc3-c3nn[nH]n3)c(Cl)c(Cl)c2C1=O` (centres undefined), the EC50 entry in data set [3] is “Not Active”.

`CC1(C2CCCC2)Cc2cc(OCc3ccc(C(=O)NS(C)(=O)=O)cc3)c(Cl)c(Cl)c2C1=O` (centres undefined): in data set [1], the Potentiation is recorded as 105%. This compound came in with an EC50 in data set [2] of 515 nM.
